Experimental data reported in US20050004126A1 (priority 2001, published 2005).
“And” between values parts separate entries of the source, which are not always exact repeats. Equal entries are not always repeated. Structures can show the parent of a compound that is named as a salt. Where two headings read alike, the source gives them in different places.

Experiments:
[1] = target: MMP-13CD (catalytic domain of collagenase 3) (Homo sapiens, UniProt P45452); assay: Thiopeptolide hydrolysis assay, MMP-13;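 note: inhibition of enzymatic thiopeptolide substrate cleavage (100 µM) in pH 6.0 MES buffer with CaCl2 and DTNB, comparing hydrolysis with versus without inhibitor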
[2] = target: MMP-3CD (catalytic domain of stromelysin) (Homo sapiens, UniProt P08254); assay: Thiopeptolide hydrolysis assay, MMP-3; type: biochemical; details: read-out: MMP03 IC50;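 note: inhibition of thiopeptolide substrate (100 µM) cleavage by the MMP-3 catalytic domain, detected with DTNB at pH 6.0 with CaCl2, hydrolysis compared against runs lacking inhibitor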
Sequence of MMP-3CD (catalytic domain of stromelysin) (P08254 100-272 limits assumed): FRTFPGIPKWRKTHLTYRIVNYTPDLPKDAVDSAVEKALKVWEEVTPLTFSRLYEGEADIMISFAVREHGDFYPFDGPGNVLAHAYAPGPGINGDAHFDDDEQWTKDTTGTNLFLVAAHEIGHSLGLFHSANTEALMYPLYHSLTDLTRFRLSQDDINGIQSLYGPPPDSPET

[3] = target: T1, MMP-1FL (full-length interstitial collagenase) (Homo sapiens, UniProt P03956); assay: Thiopeptolide hydrolysis assay, MMP-1; type: biochemical; details: read-out: MMP01 IC50
T1 sequence (P03956 100-469): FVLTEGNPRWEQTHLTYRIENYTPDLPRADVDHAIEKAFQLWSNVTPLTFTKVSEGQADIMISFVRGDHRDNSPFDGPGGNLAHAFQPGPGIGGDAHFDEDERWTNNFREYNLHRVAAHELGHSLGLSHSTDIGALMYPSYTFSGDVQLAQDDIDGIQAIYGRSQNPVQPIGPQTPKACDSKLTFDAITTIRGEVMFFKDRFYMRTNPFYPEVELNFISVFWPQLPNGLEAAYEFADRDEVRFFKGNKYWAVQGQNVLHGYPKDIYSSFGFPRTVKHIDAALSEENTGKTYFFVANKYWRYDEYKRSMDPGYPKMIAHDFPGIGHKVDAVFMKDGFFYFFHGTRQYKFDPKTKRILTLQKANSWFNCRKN

Row | SMILES | IC50 ([1]; MMP13 IC50 (μM), Table 1b) | IC50 ([2]; Table 1b) | IC50 ([3]; Table 1b) | also measured
1 | COc1ccc(C(=O)OCc2ccc3nsnc3c2)cc1C(=O)OCc1ccc2nsnc2c1 |  |  |  | IC50 ([3]; Table II): 30000 nM
2 | COC(=O)c1ccc(Cn2c(=O)c(C)c3sc(C(=O)NCc4ccc(F)cc4)cn3c2=O)cc1OC | 0.099 µM |  | > 30000 nM | 
3 | Cc1c(=O)n(Cc2ccc(C(=O)OCCN(C)C)cc2)c(=O)n2cc(C(=O)NCc3ccc(F)cc3)sc12 | 0.094 µM | > 30000 nM | > 100000 nM | 
4 | CC#CCn1c(=O)c(C)c2sc(C(=O)NCc3ccc(F)cc3)cn2c1=O | 0.315 µM | > 30000 nM | > 100000 nM | 
5 | Cc1c(=O)n(Cc2ccc(Cl)cc2)c(=O)n2cc(C(=O)NCc3ccncc3)sc12 | 0.053 µM | > 30000 nM | > 30000 nM | 
6 | Cc1c(=O)n(Cc2ccc3oc(=O)ccc3c2)c(=O)n2cc(C(=O)NCc3ccc(F)cc3)sc12 | 0.012 µM | > 30000 nM | > 30000 nM | 
7 | Cc1c(=O)n(Cc2ccc(C(=O)N3CCOCC3)cc2)c(=O)n2cc(C(=O)NCc3ccc(F)cc3)sc12 | 0.011 µM | > 30000 nM | > 30000 nM | 
8 | O=C(OCc1ccc2nsnc2c1)c1cccc(C(=O)OCc2ccc3nsnc3c2)c1 |  |  |  | IC50 ([2]; Table II): > 30000 nM; IC50 ([3]; Table II): > 100000 nM
9 | O=C(O)c1ccc(COC(=O)c2cccc(C(=O)NCc3ccc4c(c3)OCO4)c2)cc1 |  |  |  | IC50 ([1]; MMP13 IC50 (nM), Table II): 0.033 µM; IC50 ([3]; Table II): > 100000 nM
10 | CC(C)Oc1ccc(C(=O)NCc2ccc3c(c2)OCO3)cc1C(=O)NCc1ccc2c(c1)OCO2 |  |  |  | IC50 ([1]; MMP13 IC50 (nM), Table II): 3.75 µM; IC50 ([3]; Table II): 71000 nM
11 | COC(=O)Nc1cc(Cn2c(=O)c(C)c3sc(C(=O)NCc4ccc(F)cc4)cn3c2=O)on1 | 0.205 µM | > 30000 nM | > 30000 nM | 
12 | COc1ccc(CNC(=O)c2ccc(OC)c(C(=O)NCc3ccc(OC)cc3)c2)cc1 [4-Methoxy-N,N′-bis-(4-methoxybenzyl)-isophthalamide] [listing 1 of 2 here] |  |  |  | IC50 ([1]; MMP13 IC50 (nM), Table II): 0.25 µM; IC50 ([2]; Table II): 82000 nM
13 | COc1ccc(CNC(=O)c2ccc(OC)c(C(=O)NCc3ccc(OC)cc3)c2)cc1 [4-Methoxy-N,N′-bis-(4-methoxybenzyl)-isophthalamide] [listing 2 of 2 here] |  |  |  | IC50 ([3]; Table II): > 100000 nM
14 | O=C(Nc1cccc(CO)c1)c1cccc(C(=O)Nc2cccc(CO)c2)c1 [N,N′-Bis-(3-hydroxymethyl-phenyl)-isophthalamide] |  |  |  | IC50 ([1]; MMP13 IC50 (nM), Table II): 7.8 µM; IC50 ([3]; Table II): > 100000 nM
15 | O=C(NCc1ccncc1)c1ccc2c(c1)c(=O)n(C/C=C/c1ccncc1)c1nncn21 [N-(pyridin-4-ylmethyl) 4-[3-(pyridin-4-yl)-2-propen-1-yl]-5-oxo-4H-[1,2,4]triazolo[4,3-a]quinazol-7-ylcarboxamide] |  |  |  | IC50 ([1]; IC50 μM, Table V, MMP-13): 0.35 µM
16 | N#Cc1ccc(Cn2c(=O)c3cc(C(=O)NCc4ccncc4)ccc3n3cnnc23)cc1 [N-(pyridin-4ylmethyl)-4-(4-cyanobenzyl)-5-oxo-4H-[1,2,4]triazolo[4,3-a]quinazol-7-ylcarboxamide] |  |  |  | IC50 ([1]; IC50 μM, Table V, MMP-13): 0.021 µM
17 | O=C(NCCCSc1ccncc1)c1ccc2c(c1)c(=O)n(Cc1ccccc1)c1nncn21 [N-[3-(4-Pyridylsulphanyl)propyl]-4-benzyl-5-oxo-4,5-dihydro[1,2,4]triazolo[4,3-a]quinazoline-7-carboxamide] |  |  |  | IC50 ([1]; IC50 μM, Table V, MMP-13): 0.185 µM
18 | Cc1c(=O)n(Cc2ccc(C(=O)O)cc2)c(=O)n2cc(C(=O)NCc3ccc(F)cc3)sc12 [Sodium Salt] | 0.002 µM | 55500 nM |  | 

Row | SMILES | IC50 ([1]; MMP13 IC50 (μM), Table 1b) | IC50 ([2]; Table 1b) | IC50 ([3]; Table 1b) | also measured
19 | O=C(NCc1ccc2c(c1)OCO2)c1cccc(C(=O)NCc2ccc3c(c2)OCO3)c1 [Synthesis Example 11, N,N-Bis-1,3-benzodioxol-5-ylmethyl-isophthalamide] |  |  |  | IC50 ([1]; MMP13 IC50 (nM), Table II): 0.33 µM and 0.683 µM; IC50 ([2]; Table II): 69000 nM and 81000 nM
20 | O=C(OCc1ccccc1)c1ccc2c(c1)c(=O)n(Cc1ccccc1)c1nncn21 [Synthesis Example 55, Benzyl 4-benzyl-5-oxo-4H-[1,2,4]triazolo[4,3-a]quinazol-7-ylcarboxylate] |  |  |  | IC50 ([1]; IC50 μM, Table V, MMP-13): 0.0034 µM
21 | O=C(OCc1ccncc1)c1ccc2c(c1)c(=O)n(Cc1ccccc1)c1nncn21 [Synthesis Example 56, 4-Pyridylmethyl 4-benzyl-5-oxo-4H-[1,2,4]triazolo[4,3-a]quinazol-7-yl-carboxylate] |  |  |  | IC50 ([1]; IC50 μM, Table V, MMP-13): 0.0023 µM
22 | O=C(NCc1ccc2c(c1)OCO2)c1ccc2c(c1)c(=O)n(Cc1ccccc1)c1nncn21 [Synthesis Example 57, N-(3,4-Methylenedioxybenzyl)-4-benzyl-5-oxo-4H-[1,2,4]triazolo[4,3-a]quinazol-7-ylcarboxamide] |  |  |  | IC50 ([1]; IC50 μM, Table V, MMP-13): 0.004 µM
23 | N#Cc1ccc(Cn2c(=O)c3cc(C(=O)NCc4ccc5c(c4)OCO5)ccc3n3cnnc23)cc1 [Synthesis Example 58, N-(3,4-Methylenedioxybenzyl)-4-(4-cyanobenzyl)-5-oxo-4H-[1,2,4]triazolo[4,3-a]quinazol-7-ylcarboxamide] |  |  |  | IC50 ([1]; IC50 μM, Table V, MMP-13): 0.0023 µM
24 | COc1ccc(CNC(=O)c2ccc3c(c2)c(=O)n(Cc2ccc(C(=O)O)cc2)c2nncn32)cc1 [Synthesis Example 60, 4-{7-[(4-Methoxybenzyl)-carbamoyl]-5-oxo-5H-[1,2,4]triazolo[4,3-a]quinazol-4-ylmethyl}benzoic acid] |  |  |  | IC50 ([1]; IC50 μM, Table V, MMP-13): 0.0011 µM
25 | COC(=O)c1ccc(Cn2c(=O)c3cc(C#CCc4ccc(OC)cc4)ccc3n(C)c2=O)cc1 [Synthesis Example 66, Methyl 4-{6-[3-(4-methoxyphenyl)-prop-1-ynyl]-1-methyl-2,4-dioxo-1,4-dihydro-2H-quinazolin-3-ylmethyl}-benzoate] |  |  |  | IC50 ([1]; IC50 μM, Table VII, MMP-13): 0.01 µM
26 | COc1ccc(CC#Cc2ccc3c(c2)c(=O)n(Cc2ccc(C(=O)O)cc2)c(=O)n3C)cc1 [Synthesis Example 68, 4-{6-[3-(4-Methoxy-phenyl)-prop-1-ynyl]-1-methyl-2,4-dioxo-1,4-dihydro-2H-quinazolin-3-ylmethyl}-benzoic acid] |  |  |  | IC50 ([1]; IC50 μM, Table VII, MMP-13): 0.0006 µM
27 | Cn1c(=O)n(Cc2ccc(C(=O)O)cc2)c(=O)c2cc(C#CCc3ccccc3)ncc21 [Synthesis Example 69, 4-[1-Methyl-2,4-dioxo-6-(3-phenyl-prop-1-ynyl)-1,4-dihydro-2H-pyrido[3,4-d]pyrimidin-3-ylmethyl]-benzoic acid] |  |  |  | IC50 ([1]; IC50 μM, Table VII, MMP-13): 0.0065 µM
28 | COc1ccc(CC#Cc2cc3c(=O)n(Cc4ccc(C(=O)O)cc4)c(=O)n(C)c3cn2)cc1 [Synthesis Example 70, 4-{6-[3-(4-Methoxy-phenyl)-prop-1-ynyl]-1-methyl-2,4-dioxo-1,4-dihydro-2H-pyrido[3,4-d]pyrimidin-3-ylmethyl}-benzoic acid] |  |  |  | IC50 ([1]; IC50 μM, Table VII, MMP-13): 0.0012 µM
29 | O=c1c2cc(C#CCc3ccccc3)ccc2n2cnnc2n1Cc1ccccc1 [Synthesis Example 71, 4-Benzyl-7-(3-phenyl-prop-1-ynyl)-4H-[1,2,4]triazolo[4,3-a]quinazolin-5-one] |  |  |  | IC50 ([1]; IC50 μM, Table VII, MMP-13): 0.0055 µM
30 | COc1ccc(CC#Cc2ccc3c(c2)c(=O)n(Cc2ccccc2)c2nncn32)cc1 [Synthesis Example 72, 4-Benzyl-7-[(4-methoxyphenyl)-prop-1-ynyl]-4H-[1,2,4]-triazolo[4,3-a]quinazolin-5-one] |  |  |  | IC50 ([1]; IC50 μM, Table VII, MMP-13): 0.0015 µM
31 | COC(=O)c1ccc(Cn2c(=O)c3cc(C#CCc4ccc(OC)cc4)ccc3n3cnnc23)cc1 [Synthesis Example 73, Methyl 4-{7-[3-(4-methoxy-phenyl)-prop-1-ynyl]-5-oxo-5H-[1,2,4]triazolo[4,3-a]quinazolin-4-ylmethyl}-benzoate] |  |  |  | IC50 ([1]; IC50 μM, Table VII, MMP-13): 0.0017 µM
32 | O=C(O)c1ccc(Cn2c(=O)c3cc(C#CCc4ccccc4)ccc3n3cnnc23)cc1 [Synthesis Example 74, 4-[5-Oxo-7-(3-phenyl-prop-1-ynyl)-5H-[1,2,4]triazolo[4,3-a]quinazolin-4-ylmethyl]-benzoic acid] |  |  |  | IC50 ([1]; IC50 μM, Table VII, MMP-13): 0.001 µM
33 | Cn1c(=O)n(Cc2ccc(C(=O)O)cc2)c(=O)c2cc(C#Cc3ccccc3)ccc21 [Synthesis Example 75, 4-(1-Methyl-2,4-dioxo-6-(2-phenylethynyl)-1,4-dihydro-2H-quinazolin-3-ylmethyl)-benzoic acid] |  |  |  | IC50 ([1]; IC50 μM, Table VII, MMP-13): 1.34 µM
34 | COc1ccc(CNC(=O)c2cn3c(=O)n(Cc4ccccc4)c(=O)c(C)c3s2)cn1 [hydrochloride] | 0.0208 µM | 20500 nM |  | 
35 | Cc1c(=O)n(Cc2ccccc2)c(=O)n2cc(C(=O)NCc3cccnc3)sc12 [hydrochloride] | 0.26 µM |  | > 30000 nM | 

Now from value to compound, other results behind:

Row | IC50 ([1]; MMP13 IC50 (μM), Table 1b) | IC50 ([2]; Table 1b) | IC50 ([3]; Table 1b) | SMILES | also measured
36 | 0.24 µM | > 30000 nM | > 30000 nM | COC(=O)c1ccc(Cn2c(=O)c(C)c3sc(C(=O)NCc4ccc(F)cc4)cn3c2=O)cc1Cl | 
37 | 0.018 µM | 18000 nM | > 100000 nM | COC(=O)c1ccc(Cn2c(=O)c(C)c3sc(C(=O)NCc4ccc(F)cc4)cn3c2=O)cc1C | 
38 | 6.7 µM | > 30000 nM | > 30000 nM | O=C(NCc1ccccc1)c1cn2c(=O)n(C(=O)c3ccccc3)c(=O)cc2s1 | 
39 | 0.0046 µM |  | > 30000 nM | Cc1c(=O)n(Cc2ccccc2)c(=O)n2cc(C(=O)NCc3ccc4nsnc4c3)sc12 | 
40 | 0.293 µM | > 30000 nM | > 30000 nM | O=C(NCc1ccccc1)c1cn2c(=O)n(Cc3ccc(Cl)c(Cl)c3)c(=O)cc2s1 | 
41 | 0.415 µM | 43000 nM | > 30000 nM | O=C(NCc1ccccc1)c1cn2c(=O)n(Cc3ccc(Cl)cc3)c(=O)cc2s1 | 
42 | 0.086 µM | 18000 nM | > 30000 nM | Cc1c(=O)n(Cc2ccc3cc(F)ccc3n2)c(=O)n2cc(C(=O)NCc3ccc(F)cc3)sc12 | 
43 | 0.0009 µM | 16000 nM | > 100000 nM | Cc1c(=O)n(Cc2ccc(-c3nn[nH]n3)cc2)c(=O)n2cc(C(=O)NCc3ccc(F)cc3)sc12 | 
44 | 0.77 µM | > 30000 nM | > 100000 nM | Cc1nc(Cn2c(=O)c(C)c3sc(C(=O)NCc4ccc(F)cc4)cn3c2=O)cs1 | 
